This is an account of results in a melting point compilation (Tetko et al.; mined from patent text by program, amines drawn as free bases though some values may be those of a salt).

In general, melting point refers to the temperature, or range, at which the solid turns liquid. Take `CC1OC(OCc2ccccc2)C(F)C(O)C1O` (stereo unspecified): the melting point was 124 to 126 °C.

In the case of `CNC(=O)c1cccc(F)c1Nc1nc(Nc2ccc3c(c2)N(CCOC)C(=O)CCC3)ncc1Cl`, the melting point fell in the range of 199 to 204 °C.

`COc1cccc2oc(-c3ccc(C(F)(F)F)cc3)cc(=O)c12` returned a melting point of 190 to 191 °C.

The molecule `Cc1ccc(S(=O)(=O)Oc2c(Cl)cc(C3=NNC(=O)CC3)cc2Cl)cc1` yielded a melting point of 208 to 209 °C.

In turn, `Cc1cc(OCC(=O)c2ccc(C(C)C)cc2)c(C)c(C)c1Br` registered a melting point of 71 to 72 °C.

`CCOc1c(NC(C)(C)C)c(=O)c1=O`: the melting point lay in the range of 80 to 82 °C.

The molecule `COc1ccc(OCC2(Cc3c(C)nc(OC)c(C(C)C)c3C(=O)c3cc(C)cc(C#N)c3)CC2)cc1` registered a melting point of 179 to 180 °C.

For `CC(=O)Oc1cccc(C(=O)N[C@H]2COC(C)(C)OC[C@@H]2OS(C)(=O)=O)c1C`, the melting point fell in the range of 127 to 128 °C.

In turn, `C[C@@H](Cn1ncc2ccc(OC[C@@H]3CO3)c(C=O)c21)NC(=O)OCc1ccccc1` had a melting point of 90 to 92 °C.

Regarding `Cc1cc2c(cc1C1=NNC(=O)CC1)N(C)C(=O)CO2`, the melting point lay in the range of 227 to 228 °C.

In turn, `Oc1ccc2c(c1)OC(CNCCCc1c[nH]c3ccc(O)cc13)CO2` (stereo unspecified) showed a melting point of 140 to 144 °C.

In turn, `Nc1nc(N)c(C(=O)NC2=NCCN2)nc1Cl` returned a melting point of 236 °C.

Regarding `CC(=O)c1ccc2c(c1)C(=O)C1(CCOC1=O)S2` (stereo unspecified), the melting point is 139 to 140 °C.

`O=[N+]([O-])N=C1NCCN1Cc1ccc(F)nc1` yielded a melting point of 121 to 124 °C.

The molecule `O=S1(=O)c2cc(C=C(c3ccccc3)c3ccccc3)ccc2N(c2ccccc2)c2ccc(C=C(c3ccccc3)c3ccccc3)cc21` yielded a melting point of 269 to 274 °C.

Regarding `COc1cccn(C2c3cc(S(=O)(=O)C(F)(F)F)ccc3OC(C)(C)C2O)c1=O` (stereo unspecified), the melting point fell in the range of 223 to 225 °C.

`CN1CCN(Cc2ccc(Nc3ccnc4cc(C(F)(F)F)ccc34)cc2)CC1`: the melting point lay within 218 to 220 °C.

In the case of `OC1CSC(Oc2cc(-c3ccccn3)cc(F)c2F)C(O)C1O` (stereo unspecified), the melting point came to 162 °C.

On to `N#CC(Cc1ccccn1)(c1ccccc1)c1ccccc1`, for which the melting point was in the range of 116 to 117 °C.

`CN1Cc2c(C(=O)OCC3CCC3)ncn2-c2cccc(Cl)c2C1=O`: the melting point fell in the range of 181 to 182 °C.

In turn, `CCOC(=O)CN(C(=O)C(F)(F)F)C(Sc1ccccc1)P(=O)(O)ONC(C)C` (stereo unspecified) displayed a melting point of 102 to 103 °C.

In turn, `CNc1nc(OC)c(C(=O)OC)cc1Br` returned a melting point of 136 to 138 °C.

As to `CC(C)c1cccc(C(C)C)c1NC(=O)NOC(c1ccccc1)c1ccccc1`, the melting point is 152 to 154 °C.

The molecule `CCOC(=O)C#CC(C)(C)OC(=O)Nc1ccc(-c2ncn(-c3ccc(OC(F)(F)F)cc3)n2)cc1` had a melting point of 183 to 188 °C.

In turn, `Cc1cnc(Cl)c2c3cc(O)ccc3n(C)c12` registered a melting point above 260 °C.

As to `COc1cc2c(cc1OC)-c1cc(OC)c(OC)cc1C1CN3C(=O)CCC3C=C21` (stereo unspecified), the melting point lay within 252 to 254 °C.

`Cn1cc(-c2ccccc2)c(=O)c(-c2c(Cl)cccc2Cl)c1` had a melting point of 223 to 226 °C.

In turn, `COc1ccc(-c2c(Cl)ncnc2NS(=O)(=O)c2ccc(C(C)C)cc2)cc1` gave a melting point of 181 to 182 °C.

With `COc1ccc2cc(N)cc3c2c1C(=O)N(O)C3=O`, the melting point is above 250 °C.

As to `CCCCOc1c(CNC(=O)OC(C)(C)C)n(CC(C)C)c(=O)c2ccc(O)cc12`, the melting point was in the range of 185 to 186 °C.

Turning to `COc1c(O)c(CN2CCN(C)CC2)c(O)c2c(=O)cc(-c3ccccc3)oc12`, the melting point was 179 °C.

In turn, `CCOC(=O)c1cc2cccc(NC(=O)OC(C)(C)C)c2[nH]1` returned a melting point of 132 to 133 °C.

The molecule `Cc1nnc(-c2ccc3occ(-c4cccc(CO)c4)c3c2)o1` came in with a melting point of 115 to 116 °C.

For `COC(=O)CCCCCCC1C(=O)Cc2cc(OC)ccc21` (stereo unspecified), the melting point was 33.5 to 35 °C.

The molecule `Cc1oc(-c2ccccc2)nc1C(=O)c1cc2cc(Br)ccc2o1` returned a melting point of 212 to 213 °C.

The molecule `CN1C(=O)CN(N=Cc2ccccc2)C1=O` gave a melting point of 253 to 255 °C.

With `COc1cccc(-c2ccc(-c3ccccc3S(=O)(=O)Nc3onc(C)c3C)cc2)n1`, the melting point is 132 to 134 °C.

In turn, `Cc1cccc(C)c1C#CCOCCn1cnc2c(N)nc3ccccc3c21` showed a melting point of 200 to 201 °C.

Take `CC(C)(C)c1cc(NC(=O)c2cccn2-c2ccc(N)cc2)cc(C(C)(C)C)c1O`: the melting point lay in the range of 218 to 219 °C.

In turn, `CNC(=O)Nc1snc(C)c1[N+](=O)[O-]` gave a melting point of 249 to 251 °C.

On to `COC1CN(C(=O)c2cnn(C)c2C(=O)Nc2ccn3nc(-c4cccc(F)c4)nc3c2)C1`, for which the melting point is 255 to 257 °C.

Molecule `CC(=O)NCC1CN(c2ccc(N3CCN(c4nc5cc([N+](=O)[O-])ccc5o4)CC3)c(F)c2)C(=O)O1` (stereo unspecified) yielded a melting point of 224 to 225 °C.

Molecule `Cc1csc(-c2c(C)c(NC(=O)CC(C)(C)C)c(C)c3c2OCC3c2ccc(C(C)C)cc2)n1` (stereo unspecified) gave a melting point of 240 to 241 °C.

With `O=C(NC(=O)c1c(Cl)cccc1OCc1ccccc1)Nc1ccc(C(F)(F)F)cc1`, the melting point is 264 °C.

As to `COc1cccc(-c2cn3cccc(C=O)c3n2)c1`, the melting point fell in the range of 71 to 73 °C.

Take `O=C(COC(=O)Cc1ccccc1Nc1cc2c(cc1Cl)CCC2)OCc1ccccc1`: the melting point was in the range of 97 to 100 °C.

`CCc1sc2c(c1C)c(=O)c1cccc(C(=O)O)c1n2Cc1ccc(-c2ccccc2C#N)cc1`: the melting point lay within 203 to 205 °C.

Regarding `CC(=O)C1CCC2C3CCC4CC(C(C(=O)O)C(=O)O)CCC4(C)C3CCC12C` (stereo unspecified), the melting point fell in the range of 214 to 215 °C.

Turning to `COC(=O)c1cc(I)cn1CCF`, the melting point fell in the range of 49 to 50.5 °C.

`COc1ccccc1N1CCN(CCCN2C(=O)c3ccccc3C2=O)CC1`: the melting point was in the range of 85 to 93 °C.

Regarding `CC1=NN(c2ccc(Cl)cc2)C(c2ccc(NC(=O)c3cccc(I)c3C(=O)NC(C)C)c(C)c2)C1` (stereo unspecified), the melting point was 222 to 224 °C.

Turning to `CC(=O)NC[C@H]1CN(c2ccc(C3=CN(C(=O)COC(C)=O)CCC3)c(F)c2)C(=O)O1`, the melting point lay within 146 to 148 °C.

On to `CN(C)c1cc(-c2ccnc(Nc3cccc(Cl)c3)n2)ccn1`, for which the melting point fell in the range of 176 to 178 °C.

Molecule `CCCOc1ccc(S(=O)(=O)N(C)C)cc1-c1ccc(C#N)c(=O)[nH]1` came in with a melting point of 225 to 226 °C.

As for `Cc1cc(-n2c(=O)cc(C(F)(F)F)[nH]c2=O)c(F)cc1Br`, the melting point was determined as 186 °C.

In turn, `Oc1nc2ccc3sccc3c2nc1O` showed a melting point of 187 °C.

In the case of `COc1ccc(CCc2ccc(C(F)(F)F)cc2)cc1`, the melting point amounted to 80 °C.

`CCOC(=O)c1cnn2c1c(OCC)nc1ccccc12` yielded a melting point of 88 to 90 °C.

The molecule `C=CCOc1ccccc1OCC(O)CNC1CCc2ccccc2C1` (stereo unspecified) yielded a melting point of 98 to 100 °C.

On to `Cc1ccc2nc(-c3ccc(C#N)cc3)cn2c1`, for which the melting point is 225 to 226 °C.

`COC(=O)c1ccc(OCCCNc2ccc(NCc3ccc4c(c3)OCCO4)cc2)cc1` had a melting point of 185 to 188 °C.

Molecule `C=CCc1ccccc1OC(CC)C(=O)OC1CC(O)C=C2C=CC(C)C(CCC3CC(O)CC(=O)O3)C21` (mixture of isomers) yielded a melting point of 143 to 145 °C.

The molecule `O=C(O)Cc1c[nH]c2cc(C(F)(F)F)nn2c1=O` yielded a melting point of 320 to 324 °C.

In turn, `O=Cc1cc(Br)ccc1OCCc1ccccc1` gave a melting point of 79 to 80 °C.

`O=C1NCCCN1c1cc(C(c2cc(F)ccc2F)S(=O)(=O)c2ccc(Cl)cc2)c(Cl)cn1` (stereo unspecified) returned a melting point above 230 °C.

For the molecule `CCOC(=O)c1c(CN2CCCCC2)nc2cc3c(cc2c1-c1ccc(OC)c(OC)c1)OCCO3`, the melting point was 158 to 160 °C.

`CC(C)(C)OC(=O)N1CCC[C@H]1CNc1ccc2ncc(I)n2n1` came in with a melting point of 138 to 139 °C.

In turn, `COc1nc(C)c(Nc2nc(Cl)cn([C@H](COC(=O)Nc3cccc(C#N)c3)C3CC3)c2=O)cc1C` returned a melting point of 206 to 207 °C.

For `CC(C)OCC1(C(F)(F)F)c2cc(C#N)ccc2Nc2ncc(C#N)cc21` (stereo unspecified), the melting point was in the range of 226 to 227 °C.

Turning to `Cc1noc2cc(OCCCNCC3CCc4ccc(O)cc4O3)ccc12` (stereo unspecified), the melting point is 169 to 170 °C.

Molecule `C=CCCC(=O)N1C(=O)OC[C@@H]1C(C)C` returned a melting point of 119 to 120 °C.

For the molecule `O=C(NCCN1CCN(c2ncccn2)CC1)NC12CC3CC(CC(C3)C1)C2`, the melting point lay in the range of 170 to 171 °C.

On to `COc1ccc(/C=C(/C#N)c2cc(OC)c(OC)c(OC)c2)cc1N`, for which the melting point lay within 144 to 145 °C.

The molecule `O=C(NC(=O)c1ccccc1Cl)Nc1cc(Cl)c2c(c1)C(F)(F)C(F)(F)S2` showed a melting point of 140 to 142 °C.

In the case of `CSc1nncn1-c1ccc(N2C[C@H](CNC(C)=O)OC2=O)cc1F`, the melting point fell in the range of 188 to 190 °C.

Molecule `COc1cc(OC)c(C)c(C(=O)NCC23CC4CC(CC(Cl)(C4)C2)C3)c1` returned a melting point of 173 to 175 °C.

`Cc1nn(-c2c(Cl)cc(C(F)(F)F)cc2Cl)c(N)c1I` gave a melting point of 116 to 118 °C.

Turning to `CCCCC(=O)OCC(=O)C1C(C)CC2C3CC(Cl)C4=CC(=O)C=CC4(C)C3(Cl)C(O)CC21C` (stereo unspecified), the melting point came out at 218 °C.

`COc1ccccc1N1CCN(CCCNc2ccc(F)cc2)CC1` returned a melting point of 79 to 80 °C.

`CC(C)N(C(=O)CN1C(=O)Cn2cnnc2-c2ccccc21)c1ccccc1` displayed a melting point of 141 to 143 °C.

As for `COc1cc(Nc2nccc(-c3ccccc3)n2)cc(OC)c1OC`, the melting point was determined as 187 °C.

For `O=S(=O)(c1ccccc1)n1c2cc(O)c(O)cc2c2cc(O)c(O)cc21`, the melting point was 240 to 241 °C.

Take `COC(Cc1c(Br)cc(Br)c(N)c1Br)C(=O)O` (stereo unspecified): the melting point was 173 to 175 °C.

Consider `COc1cc2c(Nc3ccc(Sc4nccn4C)c(Cl)c3)c(C#N)cnc2cc1N1CCC(N2CCCCC2)CC1`, for which the melting point was 221 to 223 °C.

`O=C(CCN1C(=O)CSC1=S)Nc1ccccc1O` registered a melting point of 168 to 170 °C.

The molecule `Cn1ccc2cc(N3Cc4ccc(OC(F)(F)C(F)Cl)cc4C3=O)ccc21` (stereo unspecified) showed a melting point of 200 to 205 °C.
